Reference: ChEMBL document CHEMBL5291721, “A preclinical secondary pharmacology resource illuminates target-adverse drug reaction associations of marketed drugs” (Nat Commun, 2023)

Assays:
[1] = biological target: T1, Androgen receptor (Rattus norvegicus, UniProt P15207); format: functional
T1 sequence (P15207 whole entry): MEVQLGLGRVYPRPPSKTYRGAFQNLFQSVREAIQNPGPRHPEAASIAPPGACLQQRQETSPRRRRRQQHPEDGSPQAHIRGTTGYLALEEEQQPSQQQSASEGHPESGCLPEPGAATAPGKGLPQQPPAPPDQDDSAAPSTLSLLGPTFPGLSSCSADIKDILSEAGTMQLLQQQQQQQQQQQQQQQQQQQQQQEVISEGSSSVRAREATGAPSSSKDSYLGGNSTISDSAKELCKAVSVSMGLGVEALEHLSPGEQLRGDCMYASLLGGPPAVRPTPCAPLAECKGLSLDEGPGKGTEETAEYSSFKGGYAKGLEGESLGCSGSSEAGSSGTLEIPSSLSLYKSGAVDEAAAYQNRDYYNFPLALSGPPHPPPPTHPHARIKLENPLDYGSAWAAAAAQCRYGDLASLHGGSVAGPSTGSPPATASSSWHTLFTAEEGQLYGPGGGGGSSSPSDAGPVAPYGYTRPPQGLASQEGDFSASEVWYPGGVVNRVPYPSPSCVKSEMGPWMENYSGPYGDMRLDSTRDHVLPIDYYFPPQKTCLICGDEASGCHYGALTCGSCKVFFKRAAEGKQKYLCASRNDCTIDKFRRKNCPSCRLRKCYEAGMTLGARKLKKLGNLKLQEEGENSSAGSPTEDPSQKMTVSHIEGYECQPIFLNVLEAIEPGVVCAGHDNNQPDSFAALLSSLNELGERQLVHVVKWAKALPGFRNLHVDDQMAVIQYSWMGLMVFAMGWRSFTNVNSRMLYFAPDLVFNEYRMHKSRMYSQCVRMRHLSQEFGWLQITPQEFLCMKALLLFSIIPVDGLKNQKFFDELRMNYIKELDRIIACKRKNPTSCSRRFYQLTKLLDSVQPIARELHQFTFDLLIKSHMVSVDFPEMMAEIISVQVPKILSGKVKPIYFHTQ

[2] = biological target: Substance-P receptor (Homo sapiens, UniProt P25103)
Substance-P receptor, sequence (P25103 whole entry): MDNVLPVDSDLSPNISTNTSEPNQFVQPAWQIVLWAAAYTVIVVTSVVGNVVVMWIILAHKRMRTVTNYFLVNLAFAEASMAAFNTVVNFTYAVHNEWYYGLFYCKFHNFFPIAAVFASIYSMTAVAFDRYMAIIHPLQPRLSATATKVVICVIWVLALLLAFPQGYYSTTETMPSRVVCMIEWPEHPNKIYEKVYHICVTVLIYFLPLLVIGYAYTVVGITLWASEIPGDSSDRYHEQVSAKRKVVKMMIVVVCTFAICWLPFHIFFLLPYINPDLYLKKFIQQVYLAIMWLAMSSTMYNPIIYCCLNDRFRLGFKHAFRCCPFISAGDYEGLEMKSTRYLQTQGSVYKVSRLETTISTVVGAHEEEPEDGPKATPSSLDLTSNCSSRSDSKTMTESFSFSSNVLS

[3] = biological target: T2, Muscarinic acetylcholine receptor M2 (Homo sapiens, UniProt P08172)
T2 sequence (P08172 whole entry): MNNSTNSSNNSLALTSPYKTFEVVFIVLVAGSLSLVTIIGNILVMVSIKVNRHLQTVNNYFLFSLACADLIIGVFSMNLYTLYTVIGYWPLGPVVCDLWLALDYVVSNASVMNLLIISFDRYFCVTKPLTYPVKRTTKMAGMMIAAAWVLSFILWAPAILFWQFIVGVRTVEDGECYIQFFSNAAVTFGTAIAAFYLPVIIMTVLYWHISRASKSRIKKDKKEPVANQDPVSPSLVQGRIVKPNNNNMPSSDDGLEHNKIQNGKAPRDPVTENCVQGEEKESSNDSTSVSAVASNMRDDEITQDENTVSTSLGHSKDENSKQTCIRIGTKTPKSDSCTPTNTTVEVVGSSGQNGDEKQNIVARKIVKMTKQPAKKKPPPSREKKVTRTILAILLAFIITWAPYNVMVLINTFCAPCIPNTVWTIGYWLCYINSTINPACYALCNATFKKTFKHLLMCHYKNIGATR

[4] = biological target: Beta-3 adrenergic receptor (Homo sapiens, UniProt P13945)
Beta-3 adrenergic receptor, sequence (P13945 whole entry): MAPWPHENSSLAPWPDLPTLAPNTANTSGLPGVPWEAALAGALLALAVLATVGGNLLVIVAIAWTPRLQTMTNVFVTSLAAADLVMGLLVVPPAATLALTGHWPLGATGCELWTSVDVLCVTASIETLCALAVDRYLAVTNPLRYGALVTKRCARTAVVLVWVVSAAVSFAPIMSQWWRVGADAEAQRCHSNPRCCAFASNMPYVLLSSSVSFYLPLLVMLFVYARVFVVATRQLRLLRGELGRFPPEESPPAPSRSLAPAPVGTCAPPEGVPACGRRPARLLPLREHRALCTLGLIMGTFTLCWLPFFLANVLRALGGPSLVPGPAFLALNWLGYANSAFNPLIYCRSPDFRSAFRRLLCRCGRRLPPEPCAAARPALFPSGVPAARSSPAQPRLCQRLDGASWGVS

[5] = biological target: T3, 5-hydroxytryptamine receptor 1A (Homo sapiens, UniProt P08908)
T3 sequence (P08908 whole entry): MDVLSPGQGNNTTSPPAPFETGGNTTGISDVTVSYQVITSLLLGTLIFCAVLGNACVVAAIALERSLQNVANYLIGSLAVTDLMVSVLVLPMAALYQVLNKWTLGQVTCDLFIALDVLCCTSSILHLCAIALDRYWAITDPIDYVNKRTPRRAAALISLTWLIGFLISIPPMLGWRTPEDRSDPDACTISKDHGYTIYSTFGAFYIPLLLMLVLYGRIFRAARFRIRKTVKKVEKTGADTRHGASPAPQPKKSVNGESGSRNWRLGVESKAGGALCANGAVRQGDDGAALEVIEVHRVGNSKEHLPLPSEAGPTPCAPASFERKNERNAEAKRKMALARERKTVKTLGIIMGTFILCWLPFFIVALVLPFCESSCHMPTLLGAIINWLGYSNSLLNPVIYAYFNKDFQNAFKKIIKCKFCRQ

[6] = biological target: Voltage-dependent N-type calcium channel subunit alpha-1B (Rattus norvegicus, UniProt Q02294); format: functional
[7] = biological target: 5-hydroxytryptamine receptor 7 (Homo sapiens, UniProt P34969)
5-hydroxytryptamine receptor 7, sequence (P34969 whole entry): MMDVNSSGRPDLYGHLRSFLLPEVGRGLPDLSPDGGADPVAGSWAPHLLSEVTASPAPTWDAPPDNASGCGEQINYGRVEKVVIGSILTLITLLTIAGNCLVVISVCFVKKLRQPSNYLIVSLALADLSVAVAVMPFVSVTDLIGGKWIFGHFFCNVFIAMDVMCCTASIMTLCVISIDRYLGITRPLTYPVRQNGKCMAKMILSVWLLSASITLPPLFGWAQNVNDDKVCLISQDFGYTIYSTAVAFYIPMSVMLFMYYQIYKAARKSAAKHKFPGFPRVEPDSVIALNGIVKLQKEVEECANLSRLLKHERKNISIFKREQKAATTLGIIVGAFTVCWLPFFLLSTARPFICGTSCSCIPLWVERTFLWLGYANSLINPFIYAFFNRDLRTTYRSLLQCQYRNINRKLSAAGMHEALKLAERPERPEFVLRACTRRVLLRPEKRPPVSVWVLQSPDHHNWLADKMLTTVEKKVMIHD

[8] = biological target: 5-hydroxytryptamine receptor 6 (Homo sapiens, UniProt P50406)
5-hydroxytryptamine receptor 6, sequence (P50406 whole entry): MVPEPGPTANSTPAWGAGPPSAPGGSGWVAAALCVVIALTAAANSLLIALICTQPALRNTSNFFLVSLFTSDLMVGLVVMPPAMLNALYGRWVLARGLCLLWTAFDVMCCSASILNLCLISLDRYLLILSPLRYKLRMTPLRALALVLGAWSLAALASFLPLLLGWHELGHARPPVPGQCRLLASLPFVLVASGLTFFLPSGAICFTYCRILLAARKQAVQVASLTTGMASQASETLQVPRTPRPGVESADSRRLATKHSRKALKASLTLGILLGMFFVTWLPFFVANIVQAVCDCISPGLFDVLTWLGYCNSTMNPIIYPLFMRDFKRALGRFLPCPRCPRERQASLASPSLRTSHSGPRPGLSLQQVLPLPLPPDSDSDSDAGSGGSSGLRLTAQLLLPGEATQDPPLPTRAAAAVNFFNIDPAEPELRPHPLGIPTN

[9] = biological target: Cannabinoid receptor 1 (Homo sapiens, UniProt P21554); format: functional
Cannabinoid receptor 1, sequence (P21554 whole entry): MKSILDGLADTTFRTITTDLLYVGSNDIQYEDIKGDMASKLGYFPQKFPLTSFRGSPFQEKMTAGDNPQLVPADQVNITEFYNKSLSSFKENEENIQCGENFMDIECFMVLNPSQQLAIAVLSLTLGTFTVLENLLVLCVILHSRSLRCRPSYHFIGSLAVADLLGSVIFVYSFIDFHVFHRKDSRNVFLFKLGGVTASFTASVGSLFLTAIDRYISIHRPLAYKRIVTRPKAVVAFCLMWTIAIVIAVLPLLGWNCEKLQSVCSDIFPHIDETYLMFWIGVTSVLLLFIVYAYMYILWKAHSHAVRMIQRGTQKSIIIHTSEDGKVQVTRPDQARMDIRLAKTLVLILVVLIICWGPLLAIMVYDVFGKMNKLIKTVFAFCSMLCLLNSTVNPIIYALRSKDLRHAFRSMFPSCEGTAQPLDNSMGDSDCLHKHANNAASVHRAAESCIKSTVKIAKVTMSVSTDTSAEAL

[10] = biological target: Gamma-aminobutyric acid receptor subunit alpha-1/alpha-2/beta-2/gamma-2 (Homo sapiens, UniProt P14867+P18507+P47869+P47870); format: functional, cell-based
[11] = biological target: T4, Peroxisome proliferator-activated receptor gamma (Homo sapiens, UniProt P37231); format: functional
T4 sequence (P37231 whole entry): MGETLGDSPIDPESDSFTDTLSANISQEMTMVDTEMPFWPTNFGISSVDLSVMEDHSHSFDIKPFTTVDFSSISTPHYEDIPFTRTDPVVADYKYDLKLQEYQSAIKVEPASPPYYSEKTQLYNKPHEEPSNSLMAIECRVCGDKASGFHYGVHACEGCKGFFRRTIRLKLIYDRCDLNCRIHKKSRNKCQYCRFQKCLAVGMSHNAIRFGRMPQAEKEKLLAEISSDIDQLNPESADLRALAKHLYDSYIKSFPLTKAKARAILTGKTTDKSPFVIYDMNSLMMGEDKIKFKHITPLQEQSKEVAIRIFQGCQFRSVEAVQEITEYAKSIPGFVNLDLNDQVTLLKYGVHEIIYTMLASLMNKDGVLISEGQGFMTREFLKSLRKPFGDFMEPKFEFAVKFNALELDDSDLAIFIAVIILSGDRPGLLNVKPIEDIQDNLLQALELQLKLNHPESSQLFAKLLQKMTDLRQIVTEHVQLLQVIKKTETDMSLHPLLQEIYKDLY

[12] = biological target: Sodium channel protein type 5 subunit alpha (Homo sapiens, UniProt Q14524); format: functional, cell-based
Sodium channel protein type 5 subunit alpha, sequence (Q14524 whole entry): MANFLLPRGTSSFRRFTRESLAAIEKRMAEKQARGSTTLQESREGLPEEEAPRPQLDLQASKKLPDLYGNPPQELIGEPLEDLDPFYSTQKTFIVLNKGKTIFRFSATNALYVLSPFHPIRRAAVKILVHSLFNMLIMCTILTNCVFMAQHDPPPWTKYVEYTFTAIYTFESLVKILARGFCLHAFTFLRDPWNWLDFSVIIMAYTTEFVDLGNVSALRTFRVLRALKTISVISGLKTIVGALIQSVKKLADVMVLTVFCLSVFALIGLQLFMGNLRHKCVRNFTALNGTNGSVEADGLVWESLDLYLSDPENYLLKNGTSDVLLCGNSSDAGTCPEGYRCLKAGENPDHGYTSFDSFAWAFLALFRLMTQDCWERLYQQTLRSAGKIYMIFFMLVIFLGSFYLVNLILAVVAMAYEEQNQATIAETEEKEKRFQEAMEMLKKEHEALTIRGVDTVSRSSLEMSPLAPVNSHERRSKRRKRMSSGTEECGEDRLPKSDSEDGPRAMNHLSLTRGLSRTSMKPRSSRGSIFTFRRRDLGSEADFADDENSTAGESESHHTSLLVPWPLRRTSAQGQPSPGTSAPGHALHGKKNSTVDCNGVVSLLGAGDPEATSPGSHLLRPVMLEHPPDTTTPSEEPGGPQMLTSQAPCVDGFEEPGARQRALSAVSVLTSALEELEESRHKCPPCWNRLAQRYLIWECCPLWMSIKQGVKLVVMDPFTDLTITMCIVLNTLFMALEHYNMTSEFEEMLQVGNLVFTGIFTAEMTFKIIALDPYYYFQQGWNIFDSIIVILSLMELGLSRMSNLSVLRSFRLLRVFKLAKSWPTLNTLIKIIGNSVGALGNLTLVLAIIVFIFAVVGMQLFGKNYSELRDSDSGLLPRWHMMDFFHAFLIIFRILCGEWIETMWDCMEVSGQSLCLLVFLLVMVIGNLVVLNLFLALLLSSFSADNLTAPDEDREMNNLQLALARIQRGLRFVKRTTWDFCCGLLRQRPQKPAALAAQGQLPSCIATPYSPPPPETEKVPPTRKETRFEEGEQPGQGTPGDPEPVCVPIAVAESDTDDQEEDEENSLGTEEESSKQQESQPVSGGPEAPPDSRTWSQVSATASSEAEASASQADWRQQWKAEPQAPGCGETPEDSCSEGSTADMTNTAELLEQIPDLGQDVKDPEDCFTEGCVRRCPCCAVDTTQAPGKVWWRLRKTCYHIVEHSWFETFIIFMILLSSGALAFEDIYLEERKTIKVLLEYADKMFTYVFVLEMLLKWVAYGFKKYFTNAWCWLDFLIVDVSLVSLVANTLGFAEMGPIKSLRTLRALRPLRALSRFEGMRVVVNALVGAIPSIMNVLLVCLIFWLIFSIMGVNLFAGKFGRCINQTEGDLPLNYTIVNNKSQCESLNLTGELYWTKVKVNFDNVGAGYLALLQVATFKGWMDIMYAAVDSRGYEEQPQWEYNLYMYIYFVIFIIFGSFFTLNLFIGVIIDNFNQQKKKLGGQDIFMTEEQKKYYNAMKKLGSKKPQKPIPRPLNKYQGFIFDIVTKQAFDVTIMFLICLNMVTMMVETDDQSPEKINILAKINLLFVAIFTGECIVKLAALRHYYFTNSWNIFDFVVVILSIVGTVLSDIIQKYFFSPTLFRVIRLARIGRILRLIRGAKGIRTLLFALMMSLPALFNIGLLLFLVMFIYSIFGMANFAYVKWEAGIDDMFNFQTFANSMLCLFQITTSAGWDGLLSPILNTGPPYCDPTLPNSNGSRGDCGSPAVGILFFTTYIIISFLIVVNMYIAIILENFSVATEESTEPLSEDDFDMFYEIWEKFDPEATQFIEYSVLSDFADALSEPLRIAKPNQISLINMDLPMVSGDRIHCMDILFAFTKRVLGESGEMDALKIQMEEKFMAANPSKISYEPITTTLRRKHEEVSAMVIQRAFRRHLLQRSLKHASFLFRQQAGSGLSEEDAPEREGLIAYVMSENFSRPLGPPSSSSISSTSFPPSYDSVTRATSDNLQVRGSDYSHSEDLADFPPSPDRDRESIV
Further: assay procedure not described here.

Compound | AC50 [3] [µM] | AC50 [4] [µM] | AC50 [5] [µM] | AC50 [6] [µM] | further results
COc1ccc2c(c1)c(CC(=O)OCC(=O)O)c(C)n2C(=O)c1ccc(Cl)cc1 [ACEMETACIN] |  |  |  |  | AC50 [1]: > 30 µM
COc1ccc2cccc(CCNC(C)=O)c2c1 [AGOMELATINE] | > 10 | > 30 | > 10 | > 10 | AC50 [2]: > 10 µM
CN1CCc2cccc3c2[C@H]1Cc1ccc(O)c(O)c1-3 [APOMORPHINE] | > 10 | > 30 |  | > 10 | 
CC(C)c1c(C(=O)Nc2ccccc2)c(-c2ccccc2)c(-c2ccc(F)cc2)n1CC[C@@H](O)C[C@@H](O)CC(=O)O [ATORVASTATIN] |  | > 30 | > 10 | > 10 | 
Cc1cc2c(OCC(CNC(C)(C)C)OC(=O)c3ccccc3)cccc2[nH]1 (stereo not drawn) [BOPINDOLOL] |  |  | 0.0522 |  | 
CCCCN1CCCCC1C(=O)Nc1c(C)cccc1C (stereo not drawn) [BUPIVACAINE] |  |  |  |  | AC50 [1]: > 30 µM
CN(C)C(=O)OC1N=C(c2ccccc2)c2cc(Cl)ccc2N(C)C1=O (stereo not drawn) [CAMAZEPAM] | > 10 | > 30 | > 10 | > 10 | AC50 [7]: > 10 µM; AC50 [2]: > 10 µM; AC50 [8]: > 10 µM; AC50 [9]: > 10 µM
CCCCCOC(=O)Nc1nc(=O)n([C@@H]2O[C@H](C)[C@@H](O)[C@H]2O)cc1F [CAPECITABINE] |  |  |  |  | AC50 [10]: > 30 µM; AC50 [11]: > 30 µM
CCOc1cc(N)c([N+](=O)[O-])cc1C(=O)NC1CCN(CC2CC=CCC2)CC1 (stereo not drawn) [CINITAPRIDE] |  |  |  |  | AC50 [1]: > 30 µM
CC(C)(Oc1ccc(C2CC2(Cl)Cl)cc1)C(=O)O (stereo not drawn) [CIPROFIBRATE] |  |  |  |  | AC50 [1]: > 30 µM; AC50 [11]: > 30 µM
COC(=O)[C@H]1[C@@H](OC(=O)c2ccccc2)C[C@@H]2CC[C@H]1N2C [COCAINE] |  |  |  |  | AC50 [1]: > 30 µM
CCCCOc1cc(C(=O)NCCN(CC)CC)c2ccccc2n1 [DIBUCAINE] |  |  |  |  | AC50 [12]: 1.8 µM
CN[C@@H](C)[C@H](O)c1ccccc1 [EPHEDRINE] | > 10 | > 30 | > 10 | > 10 | AC50 [2]: > 10 µM; AC50 [12]: > 30 µM
CCNC(C)Cc1cccc(C(F)(F)F)c1 (stereo not drawn) [FENFLURAMINE] | > 10 | > 30 |  | > 10 | AC50 [2]: > 10 µM
CCCCCN(C)CCC(O)(P(=O)(O)O)P(=O)(O)O [IBANDRONIC ACID] |  | > 30 | > 10 | > 10 | AC50 [7]: > 10 µM; AC50 [1]: > 30 µM; AC50 [2]: > 10 µM; AC50 [8]: > 10 µM; AC50 [9]: > 10 µM
CC(C)[N+](C)(CCC(C(N)=O)(c1ccccc1)c1ccccc1)C(C)C [ISOPROPAMIDE] | 0.012 |  |  |  | 
COC(=O)C1=C(C)NC(C)=C(C(=O)OC(C)C)C1c1cccc2nonc12 (stereo not drawn) [ISRADIPINE] |  |  |  |  | AC50 [12]: 2.98 µM
CCN1CCC[C@H]1CNC(=O)c1cc(S(N)(=O)=O)ccc1OC [LEVOSULPIRIDE] |  |  | > 10 |  | 
Cc1cccc(C)c1NC(=O)C1CCCCN1C (stereo not drawn) [MEPIVACAINE] |  |  |  |  | AC50 [11]: > 30 µM

Compound | AC50 [3] [µM] | AC50 [4] [µM] | AC50 [5] [µM] | AC50 [6] [µM] | further results
Cc1cc(-c2ccccc2)nnc1NCCN1CCOCC1 [MINAPRINE] | > 10 | > 30 | > 10 | > 10 | AC50 [2]: > 10 µM
NC(=O)C[S+]([O-])C(c1ccccc1)c1ccccc1 (stereo not drawn) [MODAFINIL] | > 10 | > 30 | > 10 | > 10 | AC50 [7]: > 10 µM; AC50 [2]: > 10 µM; AC50 [8]: > 10 µM; AC50 [9]: > 10 µM
O=C(OCCN1CCOCC1)c1cccnc1Nc1cccc(C(F)(F)F)c1 [MORNIFLUMATE] |  |  |  |  | AC50 [1]: > 30 µM
CCCCCCCCOc1ccccc1C(=O)Nc1ccc(C(=O)OCC[N+](C)(CC)CC)cc1 [OTILONIUM BROMIDE] |  |  | > 30 |  | 
CN1CCCN=C1COC(=O)C(O)(c1ccccc1)C1CCCCC1 (stereo not drawn) [OXYPHENCYCLIMINE] | 0.0263 |  |  |  | 
O=C(O)CCCc1ccccc1 [PHENYLBUTANOIC ACID] | > 10 | > 30 | > 10 | > 10 | AC50 [7]: > 10 µM; AC50 [2]: > 10 µM; AC50 [8]: > 10 µM; AC50 [9]: > 10 µM
CC(Cc1ccccc1)NCCC(c1ccccc1)c1ccccc1 (stereo not drawn) [PRENYLAMINE] |  |  | 0.957 |  | AC50 [12]: 7.1 µM
CCN(CC)CCOC(=O)c1ccc(N)cc1 [PROCAINE] |  |  | > 10 | > 10 | 
CCCOc1ccc(C(=O)OCCN(CC)CC)cc1N [PROPARACAINE] |  |  |  |  | AC50 [11]: > 30 µM
Cc1nc2ccc(CN(C)c3ccc(C(=O)N[C@@H](CCC(=O)O)C(=O)O)s3)cc2c(=O)[nH]1 [RALTITREXED] |  |  |  |  | AC50 [1]: > 30 µM
C1COC(NC(C2CC2)C2CC2)=N1 [RILMENIDINE] |  |  | 20.5 |  | 
Nc1nc2ccc(OC(F)(F)F)cc2s1 [RILUZOLE] |  |  |  |  | AC50 [10]: > 30 µM; AC50 [11]: > 30 µM
O=C1NCCN1CCN1CCC(c2cn(-c3ccc(F)cc3)c3ccc(Cl)cc23)CC1 [SERTINDOLE] |  |  |  |  | AC50 [1]: > 30 µM; AC50 [12]: 21 µM
Cc1c(C(=O)Nc2ccc(N3C[C@@H](C)O[C@@H](C)C3)nc2)cccc1-c1ccc(OC(F)(F)F)cc1 [SONIDEGIB] | > 10 | > 30 | > 10 | > 10 | AC50 [2]: > 10 µM
CC[C@]1(O)C[C@@H]2CN(CCc3c([nH]c4ccccc34)[C@@](C(=O)OC)(c3cc4c(cc3OC)N(C)[C@H]3[C@@](O)(C(N)=O)[C@H](O)[C@]5(CC)C=CCN6CC[C@]43[C@@H]65)C2)C1 [VINDESINE] |  |  |  |  | AC50 [1]: > 30 µM
Cc1ccc(-c2nc3ccc(C)cn3c2CC(=O)N(C)C)cc1 [ZOLPIDEM] | > 10 | > 30 | > 10 | > 10 | AC50 [7]: > 10 µM; AC50 [2]: > 10 µM; AC50 [8]: > 10 µM; AC50 [9]: > 10 µM
CN1CCN(C(=O)OC2c3nccnc3C(=O)N2c2ccc(Cl)cn2)CC1 (stereo not drawn) [ZOPICLONE] |  | > 30 | > 10 | > 10 | AC50 [7]: > 10 µM; AC50 [11]: > 30 µM; AC50 [8]: > 10 µM; AC50 [9]: > 10 µM
TOCOFERSOLAN |  |  |  |  | AC50 [1]: > 30 µM
